Patent US8084457B2, “Pharmaceutically active 4,6-disubstituted aminopyrimidine derivatives as modulators of protein kinases” (Lead Discovery Center GmbH, priority 2003, dated 2011)

Legend:
CDK4 = CDK4 (Homo sapiens, UniProt P11802); assay: CDK4 (activity range), Table 2; no method described; type: biochemical
HBV = HBV replication assay in HepG2-2.2.15 cells; type: cell-based
Method: To test anti—HBV-activity of compounds the HBV-producing cell line HepG2-2.2.15 (M. A. Sells, PNAS 1987, 84, 1005-1009) was used. 1.0×10^4 cells were seeded in 96-well microtiter plates in DMEM medium supplemented with 10% FCS. After incubation at 37° C. in 5% CO2 atmosphere for 24 hours the medium was replaced with fresh medium containing the appropriately diluted compound. 3 days later medium was replaced by freshly prepared inhibitor-containing medium and the cells were incubated for further 3 days. Subsequently 200 μl lysis buffer (50 mM Tris-Cl 7.5; 1 mM EDTA 8.0; 0.5% NP40) per well was added. To remove cell debris and […], lysate was centrifuged (15000 rpm, 10 min, 4° C.). Cellular and viral RNA was removed by addition of 2 μl of RNase. 100 μl of the samples were spotted onto an uncharged nylon membrane pre-wetted with PBS (phosphate-buffered saline) using a 96 well-blotting chamber (MINIfold Dot-Blot, Schleicher&Schüll). After further washing with 200 μl PBS per well the membrane was treated twice with 0.5 M NaOH, 1.5 M NaCl (2 min) and 4 times with 0.5 M Tris 7.5, 3 M NaCl (1 min). The nucleic acids were fixed by UV-treatment and used for hybridisabon with a radioactive HBV-fragment prepared from the overgenome-length HBV-plasmid pT-HBV1.3 (L. G. Guidotti et al., Journal of Virology 1995., 69(10), 6158-6169).
The fixed membrane was pre-hybridized in a standard hybridisation buffer (50% formamide, 5×SSPE, 10×Denhards, 1% SDS, 100 μg/ml salmon sperm DNA) for at least 3 hours at 42° C. and hybridised overnight against the labelled HBV-fragment. The preparation of the HBV-fragment with the “Random primers DNA labelling system” (Invitrogen) was done according to the manufacturer's instructions. Hybridized filter were washed at room temperature with 2×SSC, at 62° C. with 2×SSC, 0.5% SDS and at 62° C. with 0.5×SSC, 0.5% SDS. Each washing step was carried out twice. The intensity of the HBV-DNA was quantified using a phosphoimager (Fuji). […] Absorbance was monitored at 570 nm and 600 nm wavelength.

Abl = Abl (Homo sapiens, UniProt P00519); assay: General kinase assay, selectivity panel: Abl; type: biochemical; settings: 10 μM of compound, in comparison to DMSO (0% inhibition)
Method: (§1) The inhibitory effect of compounds according to the present invention on the activity of protein kinases, depicted in Table 1, can be measured according to the following protocol:
(§2) Pipettinq Sequence: • 1) Add 10 μl 4 fold concentrated Substrate+4 fold concentrated ATP in 3 fold concentrated Reaction Buffer to each well of Assay Plate • 2) Add 10 μl 4 fold concentrated inhibitor in 4% DMSO in H2O to each well except to C− and C+ wells • 3) Add 10 μl 4% DMSO in H2O to C− and C+ wells • 4) Add 10 μl 500 mM EDTA in H2O to − wells • 5) Add 10 μl 50 μCi/ml Adenosine 5′-[γ-^33P]triphosphate in H2O to each well • 6) Add 10 μl 4 fold concentrated kinase in Reaction Buffer to each well • 7) Incubate 1 hr at room temperature • 8) Add 10 μl 50 mM EDTA in H2O to each well except to C− wells • 9) Prepare MAPH plates by adding 200 μl 0.75% H3PO4 to each well • 10) Exhaust 0.75% H3PO4 using Millipore vacuum station • 11) Add 60 μl 0.75% H3PO4 to each well of MAPH Filter Plate • 12) Transfer 30 μl sample per well from Assay Plate to corresponding well of MAPH Filter Plate • 13) Incubate 30 min at room temperature • 14) Wash each well of MAPH Filter Plates 3× with 200 μl 0.75% H3PO4 using Millipore vacuum station. • 15) Add 20 μl Scintillation Liquid to each well of MAPH Filter Plate • 16) Seal MAPH Filter Plate • 17) Store MAPH Filter Plate 30 min in darkness • 18) Quantify radioactivity
(§3) The activity of these protein kinases is depicted as % inhibition in the presence of 10 μM of compound in comparison to DMSO (0% inhibition).

CDK1 = CDK1 (Homo sapiens, UniProt P06493); assay: General kinase assay, selectivity panel: CDK1; type: biochemical; settings: 10 μM of compound, in comparison to DMSO (0% inhibition)
Method: as §1, §2, §3

EGFR = EGFR (Homo sapiens, UniProt P00533); assay: General kinase assay, selectivity panel: EGFR; type: biochemical; settings: 10 μM of compound, in comparison to DMSO (0% inhibition)
Method: as §1, §2, §3

GSK-3β = GSK-3β (Homo sapiens, UniProt P49841); assay: General kinase assay, selectivity panel: GSK-3β; type: biochemical; settings: 10 μM of compound, in comparison to DMSO (0% inhibition)
Method: as §1, §2, §3

PDGFR = assay: General kinase assay, selectivity panel: PDGFR; type: biochemical; settings: 10 μM of compound, in comparison to DMSO (0% inhibition)
Method: as §1, §2, §3

c-Kit = c-Kit (Homo sapiens, UniProt P10721); assay: General kinase assay, selectivity panel: c-Kit; type: biochemical; settings: 10 μM of compound, in comparison to DMSO (0% inhibition)
Method: as §1, §2, §3

p56 Lck = p56 Lck (Homo sapiens, UniProt P06239); assay: General kinase assay, selectivity panel: p56 Lck; type: biochemical; settings: 10 μM of compound, in comparison to DMSO (0% inhibition)
Method: as §1, §2, §3

RSK1 = RSK1 (Homo sapiens, UniProt Q15418); assay: General kinase assay, selectivity panel: RSK1; type: biochemical; settings: 10 μM of compound, in comparison to DMSO (0% inhibition)
Method: as §1, §2, §3

CDK5/p35 = molecular target: T1, CDK5/p35 (Homo sapiens, UniProt Q00535); assay: Kinase assay determining CDK5/p35 activity (selectivity panel); type: biochemical; settings: 10 μM of compound, in comparison to DMSO (0% inhibition)
T1 construct: purchased Upsate (Upstate)
Method: Kinase Assays Determining CDK2/CyclinA and CDK5/p35 Activity:
Kinase assays were performed as described by the manufacturers recommendations (Proqinase for CDK2/CyclinA and Upsate for CDK5/p35).
as §3

Sequence of GSK-3β (P49841 whole entry, species assumed): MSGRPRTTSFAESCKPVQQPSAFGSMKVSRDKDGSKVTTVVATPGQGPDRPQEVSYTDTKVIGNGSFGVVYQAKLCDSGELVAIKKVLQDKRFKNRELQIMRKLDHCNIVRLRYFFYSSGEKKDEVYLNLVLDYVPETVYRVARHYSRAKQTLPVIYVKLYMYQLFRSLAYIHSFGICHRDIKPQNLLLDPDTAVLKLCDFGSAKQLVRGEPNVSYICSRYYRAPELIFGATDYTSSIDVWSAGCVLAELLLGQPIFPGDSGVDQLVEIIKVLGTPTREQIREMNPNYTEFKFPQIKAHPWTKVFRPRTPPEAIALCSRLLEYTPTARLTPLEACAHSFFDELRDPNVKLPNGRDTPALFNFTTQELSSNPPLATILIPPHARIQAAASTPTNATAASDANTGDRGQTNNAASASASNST
Sequence of CDK1 (P06493 whole entry, species assumed): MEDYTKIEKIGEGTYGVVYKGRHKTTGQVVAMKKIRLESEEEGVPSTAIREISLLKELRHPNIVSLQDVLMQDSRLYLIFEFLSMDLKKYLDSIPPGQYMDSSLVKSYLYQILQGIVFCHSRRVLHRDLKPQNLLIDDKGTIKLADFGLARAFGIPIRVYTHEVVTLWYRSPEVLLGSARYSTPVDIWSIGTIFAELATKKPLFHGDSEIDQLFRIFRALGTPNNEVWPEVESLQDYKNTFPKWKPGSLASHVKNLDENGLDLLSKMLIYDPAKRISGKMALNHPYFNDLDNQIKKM
Sequence of CDK1 (P14635 whole entry partner, species assumed): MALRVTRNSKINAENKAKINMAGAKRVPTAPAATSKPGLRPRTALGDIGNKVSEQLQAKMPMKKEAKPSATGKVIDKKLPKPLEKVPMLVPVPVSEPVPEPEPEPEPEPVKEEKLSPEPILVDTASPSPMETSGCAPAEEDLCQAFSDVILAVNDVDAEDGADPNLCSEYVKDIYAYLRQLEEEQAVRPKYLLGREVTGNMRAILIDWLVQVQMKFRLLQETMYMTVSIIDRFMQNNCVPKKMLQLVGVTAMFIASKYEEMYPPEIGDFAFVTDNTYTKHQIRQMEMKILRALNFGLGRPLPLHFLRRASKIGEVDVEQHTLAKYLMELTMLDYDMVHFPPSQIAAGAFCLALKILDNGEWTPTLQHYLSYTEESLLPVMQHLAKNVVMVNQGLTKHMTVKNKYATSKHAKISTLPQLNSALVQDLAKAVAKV
T1 sequence (Q00535 whole entry): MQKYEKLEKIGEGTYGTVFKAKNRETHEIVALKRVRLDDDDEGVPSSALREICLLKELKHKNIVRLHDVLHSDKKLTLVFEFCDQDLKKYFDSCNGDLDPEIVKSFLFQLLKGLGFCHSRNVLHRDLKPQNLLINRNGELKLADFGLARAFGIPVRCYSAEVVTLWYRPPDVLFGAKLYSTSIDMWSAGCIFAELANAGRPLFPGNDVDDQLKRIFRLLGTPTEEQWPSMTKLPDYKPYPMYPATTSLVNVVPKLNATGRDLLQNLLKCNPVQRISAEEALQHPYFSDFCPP
T1 sequence (Q15078 whole entry partner): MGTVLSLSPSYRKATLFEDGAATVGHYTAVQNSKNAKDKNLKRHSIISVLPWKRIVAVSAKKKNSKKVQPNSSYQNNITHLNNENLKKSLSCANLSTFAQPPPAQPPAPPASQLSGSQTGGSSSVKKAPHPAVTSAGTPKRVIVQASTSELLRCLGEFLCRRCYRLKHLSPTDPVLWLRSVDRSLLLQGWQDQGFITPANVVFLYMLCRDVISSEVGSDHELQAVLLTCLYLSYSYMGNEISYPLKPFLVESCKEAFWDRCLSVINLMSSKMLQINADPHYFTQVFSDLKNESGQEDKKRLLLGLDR
Sequence of CDK4 (P11802 whole entry, species assumed): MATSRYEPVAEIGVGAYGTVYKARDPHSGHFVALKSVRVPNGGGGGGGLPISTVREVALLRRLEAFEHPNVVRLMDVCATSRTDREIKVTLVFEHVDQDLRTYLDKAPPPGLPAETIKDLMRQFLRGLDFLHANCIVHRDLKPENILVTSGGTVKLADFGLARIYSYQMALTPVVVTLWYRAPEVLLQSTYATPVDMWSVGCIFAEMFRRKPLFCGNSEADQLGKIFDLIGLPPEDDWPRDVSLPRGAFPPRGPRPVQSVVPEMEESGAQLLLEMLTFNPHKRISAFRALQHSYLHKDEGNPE
Sequence of CDK4 (P24385 whole entry partner, species assumed): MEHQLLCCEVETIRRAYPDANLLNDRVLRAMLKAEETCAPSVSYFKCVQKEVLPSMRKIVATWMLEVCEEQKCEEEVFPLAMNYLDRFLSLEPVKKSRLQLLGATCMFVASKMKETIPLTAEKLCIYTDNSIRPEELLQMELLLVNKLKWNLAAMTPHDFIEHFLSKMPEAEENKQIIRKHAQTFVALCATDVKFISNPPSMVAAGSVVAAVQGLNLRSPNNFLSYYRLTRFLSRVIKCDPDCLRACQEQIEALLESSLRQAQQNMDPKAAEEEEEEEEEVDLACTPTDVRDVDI
Sequence of EGFR (P00533 25-1210, species assumed): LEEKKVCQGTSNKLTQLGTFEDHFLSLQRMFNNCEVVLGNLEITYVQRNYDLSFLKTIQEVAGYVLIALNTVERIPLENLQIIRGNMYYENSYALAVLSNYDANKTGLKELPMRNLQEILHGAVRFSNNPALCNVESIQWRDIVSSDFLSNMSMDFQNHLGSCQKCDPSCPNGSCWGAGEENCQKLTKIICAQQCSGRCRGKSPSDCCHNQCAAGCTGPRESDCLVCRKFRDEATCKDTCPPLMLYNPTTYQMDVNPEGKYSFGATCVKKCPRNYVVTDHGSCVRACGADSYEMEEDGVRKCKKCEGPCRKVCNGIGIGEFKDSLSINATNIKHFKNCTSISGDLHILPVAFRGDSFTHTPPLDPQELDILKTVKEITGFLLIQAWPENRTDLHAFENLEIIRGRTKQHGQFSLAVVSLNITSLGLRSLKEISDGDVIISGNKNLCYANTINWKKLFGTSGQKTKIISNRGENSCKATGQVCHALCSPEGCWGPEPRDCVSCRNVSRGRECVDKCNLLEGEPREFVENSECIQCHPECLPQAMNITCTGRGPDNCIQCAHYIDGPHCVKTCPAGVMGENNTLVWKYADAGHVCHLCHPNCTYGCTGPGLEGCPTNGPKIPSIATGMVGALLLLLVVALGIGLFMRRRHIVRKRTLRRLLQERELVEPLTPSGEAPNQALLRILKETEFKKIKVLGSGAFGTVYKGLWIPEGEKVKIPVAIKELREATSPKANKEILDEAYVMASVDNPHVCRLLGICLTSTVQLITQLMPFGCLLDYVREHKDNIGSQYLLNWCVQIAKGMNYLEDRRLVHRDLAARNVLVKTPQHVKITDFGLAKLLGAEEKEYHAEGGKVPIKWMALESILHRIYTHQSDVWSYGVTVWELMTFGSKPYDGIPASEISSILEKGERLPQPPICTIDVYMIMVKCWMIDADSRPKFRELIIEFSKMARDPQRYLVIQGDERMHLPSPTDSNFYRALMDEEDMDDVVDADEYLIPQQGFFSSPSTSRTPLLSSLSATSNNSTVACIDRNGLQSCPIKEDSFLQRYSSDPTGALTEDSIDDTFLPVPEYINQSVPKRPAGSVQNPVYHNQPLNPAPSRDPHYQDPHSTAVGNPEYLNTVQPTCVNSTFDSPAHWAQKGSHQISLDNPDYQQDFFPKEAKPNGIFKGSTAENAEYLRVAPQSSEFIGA
Sequence of c-Kit (P10721 26-976): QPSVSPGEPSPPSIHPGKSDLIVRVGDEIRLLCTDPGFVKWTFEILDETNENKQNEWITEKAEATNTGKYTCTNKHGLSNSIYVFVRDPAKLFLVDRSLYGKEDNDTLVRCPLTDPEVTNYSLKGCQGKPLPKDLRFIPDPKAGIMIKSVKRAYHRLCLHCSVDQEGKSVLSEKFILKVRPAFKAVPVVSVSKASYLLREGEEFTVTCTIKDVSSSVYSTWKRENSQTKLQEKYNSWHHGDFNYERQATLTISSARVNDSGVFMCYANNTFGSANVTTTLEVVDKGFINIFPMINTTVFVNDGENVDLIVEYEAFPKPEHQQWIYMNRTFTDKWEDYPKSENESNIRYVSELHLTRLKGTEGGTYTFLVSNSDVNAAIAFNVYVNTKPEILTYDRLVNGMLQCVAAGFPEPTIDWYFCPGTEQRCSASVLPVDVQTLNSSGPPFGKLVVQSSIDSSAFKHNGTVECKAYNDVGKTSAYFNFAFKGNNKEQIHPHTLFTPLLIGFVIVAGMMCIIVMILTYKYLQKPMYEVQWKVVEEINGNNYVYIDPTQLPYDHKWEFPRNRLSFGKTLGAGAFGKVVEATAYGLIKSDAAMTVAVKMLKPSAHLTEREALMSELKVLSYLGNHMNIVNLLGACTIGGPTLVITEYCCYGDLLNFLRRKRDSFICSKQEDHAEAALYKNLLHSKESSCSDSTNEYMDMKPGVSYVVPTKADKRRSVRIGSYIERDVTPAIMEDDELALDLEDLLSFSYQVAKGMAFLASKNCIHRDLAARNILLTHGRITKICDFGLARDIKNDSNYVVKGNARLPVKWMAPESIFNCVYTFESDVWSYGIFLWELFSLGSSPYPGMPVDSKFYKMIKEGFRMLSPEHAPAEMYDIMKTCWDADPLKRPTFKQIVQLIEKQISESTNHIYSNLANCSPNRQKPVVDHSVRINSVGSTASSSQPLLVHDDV
Sequence of p56 Lck (P06239 whole entry): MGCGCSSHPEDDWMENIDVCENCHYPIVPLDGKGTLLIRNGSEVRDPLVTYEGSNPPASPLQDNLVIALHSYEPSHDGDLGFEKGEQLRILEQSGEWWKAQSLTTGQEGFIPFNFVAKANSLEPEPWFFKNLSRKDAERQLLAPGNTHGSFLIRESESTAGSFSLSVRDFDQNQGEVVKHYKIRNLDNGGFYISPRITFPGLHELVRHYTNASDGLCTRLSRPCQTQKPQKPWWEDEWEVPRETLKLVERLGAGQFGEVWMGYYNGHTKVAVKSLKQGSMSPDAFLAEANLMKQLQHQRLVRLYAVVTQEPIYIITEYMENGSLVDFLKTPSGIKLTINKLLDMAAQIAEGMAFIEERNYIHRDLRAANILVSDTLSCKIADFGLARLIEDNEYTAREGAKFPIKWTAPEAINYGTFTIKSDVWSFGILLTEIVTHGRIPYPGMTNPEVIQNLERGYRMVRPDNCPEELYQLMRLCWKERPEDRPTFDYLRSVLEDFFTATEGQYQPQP

| Structure (SMILES) | IC50 (CDK4) [µM] | CDK1 (% inhibition) (CDK1) | EGFR (% inhibition) (EGFR) | GSK-3β (% inhibition) (GSK-3β) | PDGFR (% inhibition) (PDGFR) | other results |
| --- | --- | --- | --- | --- | --- | --- |
| COc1ncccc1-c1cc(Nc2ccc(C(=O)N[C@@H]3CCCC[C@H]3N)cc2)ncn1 [Compound 219] | 10 to 250 | – | – | – | – | – |
| CN1CC[C@H](c2c(O)cc(O)c3c(=O)cc(-c4ccccc4Cl)oc23)[C@H](O)C1 [flavopiridol, reference compound] | – | – | – | – | – | HBV replication (in words) (HBV): inhibits replication |
| COc1ccccc1-c1cc(Nc2ccc(NC(=O)c3cn(C)cn3)cc2)ncn1 [Compound 70] | – | a (inhibition greater than 80%: a) | b (inhibition between 80 and 50%: b) | b (inhibition between 80 and 50%: b) | b (inhibition between 80 and 50%: b) | Abl (% inhibition) (Abl): c (inhibition between 50 and 30%: c); c-Kit (% inhibition) (c-Kit): b (inhibition between 80 and 50%: b); p56 Lck (% inhibition) (p56 Lck): b (inhibition between 80 and 50%: b); RSK1 (% inhibition) (RSK1): b (inhibition between 80 and 50%: b) |
| CSc1ccncc1-c1cc(Nc2ccc(C(=O)N[C@@H]3CCCC[C@H]3N)cc2)ncn1 [Compound 224] | 1 to 10 | – | – | – | – | – |
| CN[C@H](C(=O)Nc1ccc(Nc2cc(-c3ccccc3OC)ncn2)cc1)c1ccccc1 [Compound 82] | – | b (inhibition between 80 and 50%: b) | a (inhibition greater than 80%: a) | c (inhibition between 50 and 30%: c) | c (inhibition between 50 and 30%: c) | CDK5 (% inhibition) (CDK5/p35): b (inhibition between 80 and 50%: b); Abl (% inhibition) (Abl): c (inhibition between 50 and 30%: c) |
| O=C(O)Cc1ccc(Nc2cc(-c3ccccc3OCc3ccccc3)ncn2)cc1 [Compound 294] | 1 to 10 | – | – | – | – | – |
| N[C@@H]1CCCC[C@H]1NC(=O)c1ccc(Nc2cc(-c3ccccc3O)ncn2)cc1 [Compound 218] | 1 to 10 | – | – | – | – | – |
| COc1ccccc1-c1cc(Nc2ccc(NC(=O)[C@@H](N)c3ccccc3)cc2)ncn1 [Compound 81] | – | a (inhibition greater than 80%: a) | b (inhibition between 80 and 50%: b) | b (inhibition between 80 and 50%: b) | b (inhibition between 80 and 50%: b) | CDK5 (% inhibition) (CDK5/p35): a (inhibition greater than 80%: a); Abl (% inhibition) (Abl): b (inhibition between 80 and 50%: b) |
| COc1ccccc1-c1cc(Nc2ccc(NC(=O)c3ccc(N4CCN(C)CC4)cc3)cc2)ncn1 [Compound 49] | – | a (inhibition greater than 80%: a) | b (inhibition between 80 and 50%: b) | b (inhibition between 80 and 50%: b) | c (inhibition between 50 and 30%: c) | Abl (% inhibition) (Abl): b (inhibition between 80 and 50%: b); c-Kit (% inhibition) (c-Kit): b (inhibition between 80 and 50%: b); p56 Lck (% inhibition) (p56 Lck): b (inhibition between 80 and 50%: b) |
| Cc1ccc(Nc2cc(-c3cccc(N)c3)ncn2)cc1NS(=O)(=O)c1ccccc1 [Compound 109] | – | a (inhibition greater than 80%: a) | b (inhibition between 80 and 50%: b) | a (inhibition greater than 80%: a) | c (inhibition between 50 and 30%: c) | CDK5 (% inhibition) (CDK5/p35): a (inhibition greater than 80%: a) |
| COc1cccc(F)c1-c1cc(Nc2cccc(S(C)(=O)=O)c2)ncn1 [Compound 346] | 1 to 10 | – | – | – | – | – |
| CN(C)c1ccccc1-c1cc(Nc2ccc(C(=O)N[C@@H]3CCCC[C@H]3N)cc2)ncn1 [Compound 233] | 1 to 10 | – | – | – | – | – |

Continued, in another order:

| IC50 (CDK4) [µM] | CDK1 (% inhibition) (CDK1) | EGFR (% inhibition) (EGFR) | GSK-3β (% inhibition) (GSK-3β) | PDGFR (% inhibition) (PDGFR) | Structure (SMILES) | other results |
| --- | --- | --- | --- | --- | --- | --- |
| 1 to 10 | – | – | – | – | CNS(=O)(=O)c1ccc(Nc2cc(-c3ccccc3OC)ncn2)cc1 [Compound 341] | – |
| 1 to 10 | – | – | – | – | COc1ccccc1-c1cc(Nc2ccc3cnn(C)c3c2)ncn1 [Compound 353] | – |
| 1 to 10 | – | – | – | – | COc1ccccc1-c1cc(Nc2ccc(CCO)cc2)ncn1 [Compound 351] | – |
| 1 to 10 | – | – | – | – | CCN(CC)CCNC(=O)c1ccc(Nc2cc(-c3ccccc3OC)ncn2)cc1 [Compound 217] | – |
| – | a (inhibition greater than 80%: a) | b (inhibition between 80 and 50%: b) | b (inhibition between 80 and 50%: b) | b (inhibition between 80 and 50%: b) | COc1ccccc1-c1cc(Nc2ccc(NS(C)(=O)=O)cc2)ncn1 [Compound 33] | c-Kit (% inhibition) (c-Kit): b (inhibition between 80 and 50%: b); p56 Lck (% inhibition) (p56 Lck): b (inhibition between 80 and 50%: b); RSK1 (% inhibition) (RSK1): c (inhibition between 50 and 30%: c) |
| 10 to 250 | – | – | – | – | COc1ccccc1-c1cc(Nc2ccc3c(c2)S(=O)(=O)C=C3)ncn1 [Compound 342] | – |
| – | b (inhibition between 80 and 50%: b) | a (inhibition greater than 80%: a) | – | b (inhibition between 80 and 50%: b) | CNC(C)(C)C(=O)Nc1ccc(Nc2cc(-c3ccccc3OC)ncn2)cc1 [Compound 118] | CDK5 (% inhibition) (CDK5/p35): b (inhibition between 80 and 50%: b); Abl (% inhibition) (Abl): c (inhibition between 50 and 30%: c) |
| 10 to 250 | – | – | – | – | COc1ccccc1-c1cc(Nc2cccc(S(N)(=O)=O)c2)ncn1 [Compound 331] | – |
| – | a (inhibition greater than 80%: a) | a (inhibition greater than 80%: a) | c (inhibition between 50 and 30%: c) | b (inhibition between 80 and 50%: b) | CCN(CC)CCC(=O)Nc1ccc(Nc2cc(-c3ccccc3OC)ncn2)cc1 [Compound 64] | Abl (% inhibition) (Abl): b (inhibition between 80 and 50%: b); c-Kit (% inhibition) (c-Kit): b (inhibition between 80 and 50%: b); p56 Lck (% inhibition) (p56 Lck): b (inhibition between 80 and 50%: b) |
| 1 to 10 | – | – | – | – | COc1ccccc1-c1cc(Nc2ccc(N3CCOCC3)cc2)ncn1 [Compound 280] | – |
